Reference: ChEMBL document CHEMBL5725609, “1H-pyrazolo[3,4-b]pyridines and therapeutic uses thereof” (2018)
“And” between values parts separate entries of the source, which are not always exact repeats. Identical values can stand only once.

Experiment: Wnt APC Inhibition Assay: Reporter cell lines can be generated by stably transducing cells of cancer cell lines (e.g., colon cancer) with a lentiviral construct that include a wnt-responsive promoter driving expression of the firefly luciferase gene.Lentiviral constructs can be made in which the SP5 promoter, a promoter having eight TCF/LEF binding sites derived from the SP5 promoter, is linked upstream of the firefly luciferase gene. The lentiviral constructs can also include a hygromycin resistance gene as a selectable marker. The SP5 promoter construct can be used to transduce SW480 cells, a colon cancer cell line having a mutated APC gene that generates a truncated APC protein, leading to de-regulated accumulation of β-catenin. […] Compounds from a small molecule compound library can then be added to the wells in half-log dilutions using a ten micromolar top concentration. A series of control wells for each cell type receive only buffer and compound solvent. Twenty-four to forty hours after the addition of compound, reporter activity for luciferase can be assayed, for example, by addition of the BrightGlo luminescence reagent (Promega) and the Victor3 plate reader (Perkin Elmer). Readings can be normalized to DMSO only treated cells, and normalized activities can then be used in the IC50 calculations.

CC(C)(C)C(=O)Nc1cncc(-c2cnc3[nH]nc(-c4nc5c(-c6cccc(F)c6)cncc5[nH]4)c3c2)c1
IC50: 38 nM and 6 nM
